Test results taken from patent publication US9833497B2, “Human originated EGF domain proteins and use of the same” (CHENGDU SOURCEBIO LIMITED-LIABILITY COMPANY, priority 2013, dated 2017).

Legend:
Format in all cases: cell-based
Enterobacter cloacae = assay: MIC against Gram-negative bacteria: Enterobacter cloacae; details: Enterobacter cloacae; 96-well plate, 5×10^5 CFU/mL, 37° C., 10 h
Summary of the method: (§1)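 Two-fold serial dilutions of each purified human EGF domain protein, three replicate wells per level, were combined with bacteria at a final 5×10^5 CFU/mL in LB. Cultures were shaken at 175 rpm, 37° C. The MIC was taken as the minimum concentration preventing growth.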

Citrobacter diversus = assay: MIC against Gram-negative bacteria: Citrobacter diversus; details: Citrobacter diversus; 96-well plate, 5×10^5 CFU/mL, 37° C., 10 h
Summary of the method: as §1

Proteus mirabilis = assay: MIC against Gram-negative bacteria: Proteus mirabilis; details: Proteus mirabilis; 96-well plate, 5×10^5 CFU/mL, 37° C., 10 h
Summary of the method: as §1

Aeromonas hydrophila = assay: MIC against Gram-negative bacteria: Aeromonas hydrophila; details: Aeromonas hydrophila; 96-well plate, 5×10^5 CFU/mL, 37° C., 10 h
Summary of the method: as §1

Klebsiella pneumonia = assay: MIC against Gram-negative bacteria: Klebsiella pneumonia; details: Klebsiella pneumonia; 96-well plate, 5×10^5 CFU/mL, 37° C., 10 h
Summary of the method: as §1

Serratia marcescens = assay: MIC against Gram-negative bacteria: Serratia marcescens; details: Serratia marcescens; 96-well plate, 5×10^5 CFU/mL, 37° C., 10 h
Summary of the method: as §1

E. coli BL21 = assay: MIC against Gram-negative bacteria: E. coli BL21; details: E. coli BL21; 96-well plate, 5×10^5 CFU/mL, 37° C., 10 h
Summary of the method: as §1

E. coli DH5α = assay: Antibacterial activity: MIC and growth curve against E. coli DH5α in 96-well plate; details: minimal inhibitory concentration against E. coli DH5α; 96-well plate, 5×10^5 CFU/mL, 37° C., judged after 8 h
Summary of the method: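 Log-phase bacteria (OD600 ~0.5) resuspended in LB at 5×10^5 CFU/mL, exposed to recombinant protein at 50, 25, 12.5 μg/mL final in triplicate, 37 °C shaking at 175 rpm. OD600 read every 30 min; MIC is lowest concentration showing no growth.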

Moraxella catarrhalis = assay: MIC against Gram-negative bacteria: Moraxella catarrhalis; details: Moraxella catarrhalis; 96-well plate, 5×10^5 CFU/mL, 37° C., 10 h
Summary of the method: as §1

Pseudomonas aeruginosa = assay: MIC against Gram-negative bacteria: Pseudomonas aeruginosa; details: Pseudomonas aeruginosa; 96-well plate, 5×10^5 CFU/mL, 37° C., 10 h
Summary of the method: as §1

Proteus vulgaris = assay: MIC against Gram-negative bacteria: Proteus vulgaris; details: Proteus vulgaris; 96-well plate, 5×10^5 CFU/mL, 37° C., 10 h
Summary of the method: as §1

Substance	MIC against E. cloacae (Enterobacter cloacae) [µg/mL]	MIC against C. diversus (Citrobacter diversus) [µg/mL]	MIC against P. mirabilis (Proteus mirabilis) [µg/mL]	MIC against A. hydrophila (Aeromonas hydrophila) [µg/mL]	MIC against K. pneumonia (Klebsiella pneumonia) [µg/mL]	MIC against S. marcescens (Serratia marcescens) [µg/mL]	MIC against E. coli BL21 (E. coli BL21) [µg/mL]	MIC (E. coli DH5α) [µg/mL]	MIC against M. catarrhalis (Moraxella catarrhalis) [µg/mL]	MIC against P. aeruginosa (Pseudomonas aeruginosa) [µg/mL]	MIC against P. vulgaris (Proteus vulgaris) [µg/mL]
PRT1202 (GYDFCSERHNCMENSICRNLNDRAVCSCRDGFRALREDNAYCE; listed as Homo sapiens)	12.5	12.5	12.5	50	50	50	12.5	50	50	25	25
PRT1203 (DIDECAEGRHYCRENTMCVNTPGSFMCICKTGYIRIDDYSCT; listed as Homo sapiens)	12.5	12.5	12.5	50	25	50	12.5	25	50	50	25
PRT1204 (DIDECGTGRHSCANDTICFNLDGGYDCRCPHGKNCT; listed as Homo sapiens)	12.5	25	12.5	50	25	25	25	100	25	50	50
PRT1205 (EHDECITNQHNCDENALCFNTVGGHNCVCKPGYTGNGTTCK; listed as Homo sapiens)	12.5	12.5	50	50	25	25	12.5	25	25	50	12.5
PRT1207 (DIDECSDGFVQCDSRANCINLPGWYHCECRDGYHDNGMFSPSGESCE; listed as Homo sapiens)	25	12.5	25	25	12.5	12.5	25	12.5	25	12.5	12.5
PRT1208 (VHHGCEDDPCPEGSECVSDPWEEKHTCVCPSGRFGQCP; listed as Homo sapiens)	12.5	25	50	50	25	12.5	25	12.5	12.5	12.5	25
PRT1209 (ATEDCASNPCQNGGVCNPSPAGGYYCKCSALYIGTHCE; listed as Homo sapiens)	25	25	12.5	12.5	50	12.5	12.5	50	12.5	25	25
PRT1210 (SVNPCSSKPCLYGGTCVVDNGGFVCQCRGLYTGQRCQ; listed as Homo sapiens)	25	12.5	12.5	25	12.5	12.5	12.5	25	25	25	25
PRT1211 (LSPYCKDEPCKNGGTCFDSLDGAVCQCDSGFRGERCQ; listed as Homo sapiens)	50	12.5	50	25	25	12.5	25	50	25	12.5	25
PRT1212 (DIDECSGNPCLHGALCENTHGSYHCNCSHEYRGRHCE; listed as Homo sapiens)	25	12.5	50	25	50	12.5	25	50	25	12.5	25
PRT1213 (HSDYCSQNTCLNGGKCSWTHGAGYVCKCPPQFSGKHCE; listed as Homo sapiens)	100	25	25	50	25	25	25	25	12.5	50	50
PRT1214 (GRENCTFAPCLEGGTCILSPKGASCNCPHPYTGDRCE; listed as Homo sapiens)	12.5	12.5	50	50	25	25	12.5	25	25	50	12.5
PRT1215 (SNDPCVEKPCPGDMQCVSYEASRRPFLCQCPPGKLGECS; listed as Homo sapiens)	50	25	25	12.5	25	25	50	25	50	12.5	12.5
PRT1216 (YPDACKRSPCQHGGSCTGLPSGGYQCTCLSQFTGRNCE; listed as Homo sapiens)	25	50	50	25	12.5	12.5	12.5	50	12.5	50	25
PRT1217 (EITACFPNPCRNGGSCDPIGNTFICNCKAGLTGVTCE; listed as Homo sapiens)	25	25	50	50	12.5	12.5	12.5	50	12.5	50	25
